Measurements: patent publication US20150152469A1, “FLUORESCENT PROBE FOR HIGH-SENSITIVITY PANCREATIC FLUID DETECTION, AND METHOD FOR DETECTING PANCREATIC FLUID” (THE UNIVERSITY OF TOKYO, priority 2012, published 2015)

What was measured:
[1] = target: T1, chymotrypsin (a-chymotrypsin derived from bovine pancreas) (Bos taurus, UniProt P00766); assay: Fluorescence assay using chymotrypsin; assay type: biochemical; details: 2.4 μM probe, 4.6 U chymotrypsin
T1 construct: a-chymotrypsin derived from bovine pancreas; purchased SIGMA C4129-250MG; host or cells: bovine pancreas
Method: 3 μL of a 2.4 mM gPhe-HMRC dimethylsulfoxide (DMSO) solution was dissolved in 3 mL of 0.1 M sodium phosphate buffer (pH 7.4) at a final concentration of 2.4 μM, 4.6 U of chymotrypsin (a-chymotrypsin derived from bovine pancreas: SIGMA C4129-250MG) was added thereto to conduct an enzymatic reaction at 37° C. The excitation wavelength was set to 501 nm.

[2] = test system: chymotrypsin activities in pancreatic fluid; assay: In vitro fluorescence assay using human pancreatic fluid (gPhe-HMRG); assay type: biochemical
Method: (§1) gPhe-HMRG synthesized in Example 1 and gGlu-HMRG, which has a glutamic acid residue, synthesized in Example 2 were used as fluorescent probes to evaluate enzymatic activities of pancreatic fluid obtained from patients of pancreatic cancer or bile duct cancer. 1 μL of a fluorescent probe DMSO solution (1 mM) was dissolved in 180 μL of a 0.1 M sodium phosphate buffer (pH 7.4) at a final concentration of […], 20 μL of a pancreatic fluid was added thereto, and an enzymatic reaction was carried out at 37° C. for 30 minutes. In the case of gPhe-HMRG, a probe solution to which 57 BAEE units of trypsin (bovine pancreas-derived trypsin: SIGMA T1426-100MG) had been added was used to carry out the same enzymatic reaction. In addition, as to inhibitor treatments for comparisons, 1 μL of an aqueous solution (10 mM) of a γ-glutamyltransferase inhibitor (GGs-Top: Wako Pure Chemical 075-05471) in the case of gGlu-HMRG, and 1 μL of a DMSO solution (10 mM) of a chymotrypsin inhibitor (chymostatin: SIGMA C7268) in the case of gPhe-HMRG were each added to probe solutions. For excitation wavelengths and fluorescence wavelengths of a fluorescence measurement device, 478-492 nm and 523-548 nm, respectively, were used.

chymotrypsin = assay: Fluorescence response to drain samples of pancreatic fluid, ascitic fluids and intestinal fluids (gPhe-HMRG, gPhe-HMRG-Try); assay type: biochemical, human
Method: (§2) Furthermore, response behaviors of the fluorescent probes against body fluids other than pancreatic fluid were compared by using drain samples which were collected from patients who received resectional surgeries of the pancreas. With respect to a total of 76 samples of pancreatic fluid, ascitic fluids and intestinal fluids which were collected from 18 patients, changes in fluorescent intensities were measured for gGlu-HMRG, gPhe-HMRG, and trypsin-added gPhe-HMRG (gPhe-HMRG-Try).
(§3) 180 μL of a probe solution (1.1 μM) was poured into each well of a 96-well microplate reader (SH-8000, Hitachi), and then, 20 μL of a collected sample was added thereto, followed by mixing them. The sample was incubated at 37° C., and fluorescence responses were measured after 5 minutes, 15 minutes and 30 minutes. Trypsin was added to gPhe-HMRG-Try at a final concentration of 0.525 μBTEE/μL. For an excitation wavelength and a fluorescence wavelength for the fluorescence measurement device, 490 nm and 520 nm, respectively, were used. The obtained results of fluorescence responses are shown as average values of respective samples in FIG. 5.

[3] = Fluorescent imaging of human pancreatic fluid; details: for visualization of adhesion points of the pancreatic fluids: 50 μM probe solution sprayed on paper (gPhe-HMRG with trypsin), after several minutes from spraying
Method: Fluorescent imaging of pancreatic fluids on an excised surface of the pancreas was carried out by using gPhe-HMRG and gGlu-HMRG as fluorescent probes. In consideration of, for example, cases where materials retaining pancreatic fluids, which are measurement subjects, are used during surgeries, wiping towels and filter paper for experiments (those having low background fluorescence from paper itself), which had been used in clinical practice, were used as the materials. For specific procedures, apiece of the pancreas immediately after being excised by surgical operations was collected, the wiping towel and filter paper was adhered to its excised surface, thereby adhering the pancreatic fluid thereto. Then, probe solutions of gPhe-HMRG (including trypsin) and gGlu-HMRG were sprayed to the adhered paper to start imaging. For the probe solutions, 10 μL of a DMSO solution (10 mM) of each probe was dissolved in 2 mL of RPMI 1640 medium (GINBO 11835) at a final concentration of 50 μM, and, for gPhe-HMRG, a solution obtained by adding trypsin (52.6 BTEE units) thereto was used. For an excitation filter and a fluorescence filter, long path filters of 435-480 nm and 490 nm, respectively, were used.

[4] = target: T2, γ-glutamyltransferase activity in a pancreatic fluid (Homo sapiens, UniProt P19440); assay: In vitro fluorescence assay using human pancreatic fluid (gGlu-HMRG); assay type: biochemical; details: 0.9 μM probe, 37° C., 30 minutes
T2 construct: pancreatic fluid obtained from patients of pancreatic cancer or bile duct cancer; from tissue; host or cells: pancreatic fluid from patients with pancreatic cancer or bile duct cancer
T2 sequence (P19440 1-380 limits assumed): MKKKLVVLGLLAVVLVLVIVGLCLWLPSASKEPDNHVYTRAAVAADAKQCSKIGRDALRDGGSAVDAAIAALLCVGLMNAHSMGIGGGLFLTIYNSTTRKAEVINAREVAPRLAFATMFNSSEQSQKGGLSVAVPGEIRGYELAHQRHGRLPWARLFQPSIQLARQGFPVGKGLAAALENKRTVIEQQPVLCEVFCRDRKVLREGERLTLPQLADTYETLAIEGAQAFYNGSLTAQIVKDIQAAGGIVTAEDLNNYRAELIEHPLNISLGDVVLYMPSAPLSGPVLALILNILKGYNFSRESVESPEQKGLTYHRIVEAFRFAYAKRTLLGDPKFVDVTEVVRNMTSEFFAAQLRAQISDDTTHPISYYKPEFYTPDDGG
T2 sequence (P19440 381-569 limits assumed): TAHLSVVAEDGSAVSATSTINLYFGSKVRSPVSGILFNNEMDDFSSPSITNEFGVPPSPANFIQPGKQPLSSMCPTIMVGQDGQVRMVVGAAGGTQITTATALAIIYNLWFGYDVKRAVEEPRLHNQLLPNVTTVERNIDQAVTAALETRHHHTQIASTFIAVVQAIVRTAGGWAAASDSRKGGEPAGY
Method: as §1

γ-glutamyltransferase = assay: Fluorescence response to drain samples of pancreatic fluid, ascitic fluids and intestinal fluids (gGlu-HMRG); assay type: biochemical, human; details: drain samples from patients, 37° C., 5, 15, 30 minutes
Method: as §2, §3

Row | change in absorption by chymotrypsin addition ([1]; 0.1 M sodium phosphate buffer pH 7.4, 37° C.) | change in fluorescent intensity by chymotrypsin addition ([1]; pH 7.4, 37° C., excitation 501 nm) | time until fluorescent intensity reached saturation after chymotrypsin addition ([1]; fluorescence at 524 nm, 37° C.) | fluorescent intensity when γ-glutamyltransferase-specific inhibitor (GGs-Top) was added ([4]; pancreatic fluid, inhibitor added) | Substance | change in fluorescent intensity by addition of pancreatic fluid sample, trypsin included ([2]; 0.9 μM probe, 57 BAEE units trypsin, pancreatic fluid samples No. 1 to No. 5, 37° C., 30 minutes) | fluorescence response against chymotrypsinogen (precursor) ([2]; pancreatic fluid without trypsin addition) | fluorescent intensity when chymostatin (chymotrypsin inhibitor) was added ([2]; pancreatic fluid, trypsin, chymostatin added, 37° C., 30 minutes) | fluorescent response to body fluids, trypsin not added (chymotrypsin; pancreatic fluid, ascitic fluids, intestinal fluids from patients, 37° C., 5, 15, 30 minutes) | fluorescence response compared with gGlu-HMRG (chymotrypsin; trypsin added) | visualization of adhesion points of the pancreatic fluids [3] | fluorescence response at adhesion points of body fluids other than the pancreatic fluid ([3]; 50 μM probe with trypsin sprayed on paper) | change in fluorescent intensity by addition of pancreatic fluid sample ([4]; 20 μL pancreatic fluid (samples No. 1 to No. 5), no inhibitor) | fluorescent response to ascitic fluids (γ-glutamyltransferase) | fluorescent response to pancreatic fluids (γ-glutamyltransferase) | fluorescent response to intestinal fluids (γ-glutamyltransferase; compared with pancreatic fluids)
1 | significant increases | significant increases | about 600 seconds | – | glutamyl-phenylalanine hydroxymethyl rhodamine green [gPhe-HMRG] | remarkable increases in fluorescent intensities were observed in all the pancreatic fluid samples | hardly showed a fluorescence response | significantly decreased | significant fluorescent responses were not observed for all the body fluids | superior | successfully accomplished | any fluorescence response was not observed | – | – | – | –
2 | – | – | – | significantly decreased | γ-glutamyl hydroxymethyl rhodamine green [gGlu-HMRG] | – | – | – | – | – | successfully accomplished | – | increases in fluorescent intensities were observed in all pancreatic fluid samples | increases in fluorescent intensities were observed | an increase in fluorescent intensities was observed | a larger increase in fluorescent intensities was observed for intestinal fluids, than for the case of pancreatic fluids
